Measured values from patent publication US20190328753A1, “COMPOSITIONS AND METHODS FOR TREATING OCULAR DISEASES” (priority 2015, published 2019).
“And” between values parts separate entries of the source, which are not always exact repeats. Equal values may be shown once. “Also recorded” adds a separate entry of the source.

Key:
ELOVL4 gene expression = test: RT-PCR of ELOVL4 gene expression in HTCE cells (Example 9); type: cell-based, Human; details: 7th day; for ELOVL4 gene expression, induction: normalized
Procedure: HTCE cells were cultured in 6 well plates and grown to about 30% confluence. The cells were then treated with different dilutions of a 0.025 mg/ml Spironolactone eye drop formulation (i.e. 50×, 100×, 500×, 1000×, and 5000×, corresponding to 0.0005 mg/ml, 0.00025 mg/ml, 0.00005 mg/ml, 0.000025 mg/ml, and 0.000005 mg/ml). The medium with different concentrations of Spironolactone was changed every 2 days. On the 7th day, the cells were collected, and the RNA was extracted and subject to RT-PCR analysis for gene expression of ELOVL4, an enzyme involved in the biosynthesis of fatty acids (particularly very long chain fatty acids (VLCFAs)).

[1] = according to the literature; cited from earlier work
Corneal epithelial cells [2] = test: Lipid production in corneal epithelial cells, dilutions of 3 mg/ml formulation, Oil Red O (Example 6); type: cell-based; details: ninth day
Procedure: Corneal epithelial cells were cultured in vitro and treated with 0.03 mg/ml and other dilutions of a 3 mg/ml formulation of Spironolactone (100× (0.03 mg/ml), 200× (0.015 mg/ml), 500× (0.006 mg/ml), and 1000× (0.003 mg/mI)). The corneal epithelial cells were cultured in vitro to about 10-20% confluence. The cell medium with added spironolactone was changed every 2-3 days. On the ninth day, the cells were stained for lipids with Oil Red O.

Corneal epithelial cells [3] = test: In vitro toxicity / cell morphology in corneal epithelial cells (Example 7); type: cell-based
Procedure: (§1) Corneal epithelial cells were cultured in vitro to about 30% confluence and treated with various dilutions of a 0.025 mg/mL spironolactone eye drop formulation (i.e. 50×, 100×, 500×, 1000×, and 5000×, corresponding to 0.0005 mg/ml, 0.00025 mg/ml, 0.00005 mg/ml, 0.000025 mg/ml, and 0.000005 mg/ml). The cell medium with spironolactone was changed every two days. On the seventh day, the cells were stained for lipids with Oil Red O.
Toxicity to cells was also taken into account. Toxicity in the context of this disclosure refers to any amount of cell death upon exposure to the composition. Little to no toxicity or relatively no toxicity refers to some amount of cell death to no cell death upon exposure to the composition. Alternatively or additionally, the morphology should look phenotypically normal for the cells. Toxicity can be measured quantitatively or qualitatively, in vivo or in vitro. Standard assays, such as an LDH (lactate dehydrogenase) assay, can be used to quantify toxicity of the compositions and to determine a TC50 concentration, i.e., a concentration that results in cell death for 50% of the cells upon exposure of the cells to that concentration. […] As such, a concentration of 0.025 mg/cc or lower appears to be safe. […] Compositions with lower amounts of active agent (e.g., 0.0000025 mg/cc) may be useful for maintaining a patient's condition, without subjecting the patient to long-term toxicity, for example, once the patient has been stabilized by treatment for some amount of time with a higher concentration.

[4] = system: patients with moderate to severe meibomian gland disease; test: Pilot study (Example 3): topical spironolactone ophthalmic suspension in MGD, retrospective pre-post
Corneal epithelial cells [5] = test: Lipid production in corneal epithelial cells, dilutions of 0.025 mg/ml formulation, Oil Red O (Example 7); type: cell-based; details: seventh day
Procedure: as §1

[6] = Solubility of spironolactone; type: physicochemical; details: with the help of Pluronic F127
Procedure: The present inventors were able to get spironolactone into solution at 0.015 mg/ml with the help of Pluronic F127.

[7] = 1000× dilution (0.000025 mg/ml)
[8] = 5000× dilution (0.000005 mg/ml)
[9] = post-treatment, n=20, lissamine green, scale 0-3
[10] = post-treatment, n=20, scale 0-4
[11] = pre vs post-treatment, n=20, positive = score decrease, scale 0-4
[12] = pre-post change, n=20, scale 0-3
[13] = pre-post change, n=20, scale 0-4

CC(=O)SC1CC2=CC(=O)CCC2(C)C2CCC3(C)C(CCC34CCC(=O)O4)C12 (stereo not drawn) [spironolactone, 7α-acetylthio-3-oxo-17α-pregn-4-ene-21,17-carbolactone]
ELOVL4 gene expression, induction (ELOVL4 gene expression; 0.00025 mg/ml (100× dilution)): approximately 2 fold
ELOVL4 gene expression, induction (ELOVL4 gene expression; 0.0005 mg/ml (50× dilution)): approximately 4.5 fold
ELOVL4 gene expression (ELOVL4 gene expression; remaining treatment groups (0.00005, 0.000025, 0.000005 mg/ml)): no change relative to control
solubility in water [1]: practically insoluble in water
lipid production (Oil Red O) (Corneal epithelial cells [2]; 0.006 mg/ml (500× dilution)): enhanced lipid production
lipid production (Oil Red O) (Corneal epithelial cells [2]; 0.015 mg/ml (200× dilution)): enhanced lipid production
lipid production (Oil Red O) (Corneal epithelial cells [2]; 0.03 mg/ml (100× dilution)): enhanced lipid production
in vitro toxicity (Corneal epithelial cells [3]; 0.025 mg/ml): some in vitro toxicity
in vitro toxicity / cell morphology (Corneal epithelial cells [3]; 100× dilution (0.00025 mg/ml)): non confluence and some relative toxicity
in vitro toxicity / cell morphology (Corneal epithelial cells [3]; 500× dilution (0.00005 mg/ml)): confluent nontoxic cell morphology
in vitro toxicity / cell morphology (Corneal epithelial cells [3]; [7]): no in vitro toxicity; also recorded: confluent nontoxic cell morphology
in vitro toxicity / cell morphology (Corneal epithelial cells [3]; [8]): confluent nontoxic cell morphology
side effects after topical administration ([4]; patients of the pilot study): A small percentage of the patients reported a mild temporary burning sensation in the eye
Vision OD, Mean ([4]; post-treatment, n = 19): 0.069±0.051 log Mar units and 0.069 log Mar units
Schirmer's OD, Mean ([4]; post-treatment, n=20): 13.6 mm
Schirmer's OS, Mean ([4]; post-treatment, n=20): 14.6 mm
Vision OS, Mean ([4]; post-treatment, n=20): 0.063±0.032 log Mar units and 0.063 log Mar units
Conjunctival OD (Nasal), Mean [4, 9]: 0.83±0.189 and 0.83
Conjunctival OD (Temporal), Mean [4, 9]: 0.55±0.181 and 0.55
Conjunctival OS (Nasal), Mean [4, 9]: 0.60±0.148 and 0.60
Conjunctival OS (Temporal), Mean [4, 9]: 0.40±0.134 and 0.40
Keratitis OD Corneal, Mean [4, 9]: 0.050±0.050 and 0.050
Keratitis OS Corneal, Mean [4, 9]: 0.20±0.156 and 0.20
Anterior Blepharitis, Mean [4, 10]: 0.38±0.114 and 0.38
Obstruction, Mean [4, 10]: 1.58±0.236 and 1.58
Turbidity, Mean [4, 10]: 2.3±0.193 and 2.3
Vascularity, Mean [4, 10]: 1.48±0.253 and 1.48
Zone A, Mean [4, 10]: 3.125±0.188 and 3.125
Subjective Global Assessment, Mean ([4]; post-treatment, n=20, scale 0-10): 4.6±0.534 and 4.6
improvement of turbidity score, percent ([4]; pre vs post-treatment, n=20): 22.03%
improvement of zone A score, percent ([4]; pre vs post-treatment, n=20): 11.97%
mean improvement in anterior blepharitis score [4, 11]: 0.175±0.230
mean improvement in obstruction score [4, 11]: 0.40±0.222
mean improvement in turbidity score [4, 11]: 0.65±0.141
mean improvement in vascularity score [4, 11]: 0.25±0.194
mean improvement in zone A score [4, 11]: 0.425±0.186
improvement in self-reported global assessment scores ([4]; pre vs post-treatment, n=20, positive = score decrease, scale 0-10): 1.4±0.597
Vision OD (log Mar units), Change % ([4]; pre-post change, n = 19): 213.64%
Vision OD, mean change ([4]; pre-post change, n = 19): 0.047±0.043 log Mar units and 0.047 log Mar units
Anterior Blepharitis, Change % ([4]; pre-post change, n=20): −31.82%
Conjunctival OD (Nasal), Change % ([4]; pre-post change, n=20): −20.00%
Conjunctival OD (Temporal), Change % ([4]; pre-post change, n=20): −29.49%
Conjunctival OS (Nasal), Change % ([4]; pre-post change, n=20): −36.84%
Conjunctival OS (Temporal), Change % ([4]; pre-post change, n=20): 20.00%
Keratitis OD (Corneal), Change % ([4]; pre-post change, n=20): −50.00%
Keratitis OS (Corneal), Change % ([4]; pre-post change, n=20): 0.00%
Obstruction, Change % ([4]; pre-post change, n=20): −20.25%
Schirmer's OD (mm), Change % ([4]; pre-post change, n=20): −3.71%
Schirmer's OD, mean change ([4]; pre-post change, n=20): −0.525±1.496 mm and −0.525 mm
Schirmer's OS (mm), Change % ([4]; pre-post change, n=20): 1.75%
Schirmer's OS, mean change ([4]; pre-post change, n=20): 0.250±1.008 mm and 0.25 mm
Subjective Global Assessment, Change % ([4]; pre-post change, n=20): −23.33%
Turbidity, Change % ([4]; pre-post change, n=20): −22.03%
Vascularity, Change % ([4]; pre-post change, n=20): −14.45%
Vision OS (log Mar units), Change % ([4]; pre-post change, n=20): −7.20%
Zone A, Change % ([4]; pre-post change, n=20): −11.97%
Conjunctival OD (Nasal), Mean Change [4, 12]: −0.20±0.142 and −0.20
Conjunctival OD (Temporal), Mean Change [4, 12]: −0.23±0.187 and −0.23
Conjunctival OS (Nasal), Mean Change [4, 12]: −0.35±0.146 and −0.35
Conjunctival OS (Temporal), Mean Change [4, 12]: 0.10±0.204 and 0.10
Keratitis OD Corneal, mean change [4, 12]: −0.05±0.114 and −0.05
Keratitis OS Corneal, mean change [4, 12]: 0.00±0.126 and 0.00
Anterior Blepharitis, mean change [4, 13]: −0.175
Obstruction, mean change [4, 13]: −0.4
Turbidity, mean change [4, 13]: −0.65
Vascularity, mean change [4, 13]: −0.25
Zone A, mean change [4, 13]: −0.425
Subjective Global Assessment, mean change ([4]; pre-post change, n=20, scale 0-10): −1.4
lipid production (Oil Red O) (Corneal epithelial cells [5]; [7]): lipid production was still present
lipid production (Oil Red O) (Corneal epithelial cells [5]; [8]): no lipid is being formed
concentration brought into solution [6]: 15000 ng/mL
